In patent US20160264593A1 (priority 2013, published 2016):
Where “and” joins values, the source holds several entries; their conditions need not be identical. Equal entries are not always repeated. Where two headings read alike, the source gives them in different places.

Columns and labels:
PP2A [1] = test: PP2A activity in mouse livers after IP dosing (PP2A immunoprecipitation phosphatase assay, malachite green); assay type: in vivo, Balb/c mice; conditions: liver
Procedure: (§1) Coomassie (Bradford) Protein Assay Kit (Pierce); PP2A Immunoprecipitation Phosphatase Assay Kit (Millipore); Lysate preparation for low endogenous phosphate: 20 mM imidazole-HCl, 2 mM EDTA, 2 mM EGTA, 1 mM PMSF, 1 mM benzamidine, 10 ug/ml each of aprotinin, leupeptin, antipain, soybean trypsin inhibitor; Normal Mouse IgG (Millipore); Okadaic acid (OA) (Tocris); DMSO (Sigma).
(§2) • Species: Mus Musculus • Strain: Balb/c mice • Age: 6-8 weeks • Sex: female • Body weight: 18-22 g • Vendor: Shanghai Laboratory Animal Center, Shanghai, China; • Number of animals: 66 Balb/c mice plus spare
(§3) The mice were kept in laminar flow rooms at constant temperature and humidity with 4 animals in each cage. • Temperature: 20-25 • Humidity: 40-70%. • Light cycle: 12 hours light and 12 hours dark. • Cages: Made of polycarbonate. The size is 29 cm×17.5 cm×12 cm (L×w×H). The bedding material is wood debris, which is changed once per week. • Diet: Animals had free access to irradiation sterilized dry granule food during the entire study period. • Water: Animals had free access to sterile drinking water. • Cage identification: the identification labels for each cage contained the following information: number of animals, sex, strain, date arrival, treatment, study number, group number, and the starting date of the treatment. • Animal identification: Animals were marked by ear punch.
(§4) All the procedures related to animal handling, care, and the treatment in this study were performed according to guidelines approved by the Institutional Animal Care and Use Committee (IACUC) of WuXi AppTec (Shanghai), following the guidance of the Association for Assessment and Accreditation of Laboratory Animal Care (AAALAC). At the time of routine monitoring, the animals were checked and recorded for any effects of tumor growth on normal behavior such as mobility, food and water consumption (by looking only), body weight gain/loss, eye/hair matting and any other abnormal effect.
(§5) 1. Proper amount of the compounds were weighed. 2. The compounds were dissolved in 4% sterile sodium bicarbonate. 3. All of the compounds should be well dissolved and clear. 4. The compounds should be kept cold once in solution and injected within an hour. 5. The mice were administered intraperitoneally according to their body weights, 20 g mouse was treated with 0.2 ml compound solution. 6. Mice were treated with vehicle and compounds according to Table 1. 7. 3 hours after the dose, 3 mice from each group were euthanized by
(§6) CO2 exposure, and the brains and left lobe of livers were taken and snap-frozen in liquid nitrogen immediately. 6 hours after the dose, the other 3 mice from each group were euthanized by CO2 exposure, and the brains and left lobe of livers were taken and snap-frozen in liquid nitrogen immediately.
(§7) Preparation of malachite green phosphate detection solution Added […] of Solution B to each 1 mL of Solution A, kept at room temperature during use. […] of mixed solution AB is used per assay well.
(§8) Diluted 125 mL Phosphate Standard (Solution C) with 1125 mL of distilled water to make 0.1 mM working solution. The solution was used to prepare a phosphate standard curve as described in the table below.
(§9) 1. 25 μL of each phosphate standards was transferred to wells of microliter plate. 2. Added 100 μL of Malachite Green Solution AB. Mixed carefully without creating bubbles. 3. Cultured for 15 minutes at RT. 4. Measured absorbance at a wavelength between 650 nm in a microliter plate reader.
(§10) 1. Dissolved 1 mg Threonine Phosphopeptide (Catalog #12-219) in 1.10 mL of distilled water to prepare a 1 mM solution. 2. Aliquot peptide solution and stored at ˜20° C. as necessary.
(§11) 1. Mouse brain or liver was homogenized using lysis buffer (25 g/L), centrifuged at 12000 g for 10 minutes at […], and the supernatants were collected. 2. The protein was quantitated, and 240 μg of mouse brain or liver lysate was taken to assay phosphatase activity. 3. […]

[2] = tested on: glioblastoma (U-87) cells; test: WST cell viability assay, U-87 MG; assay type: cell-based; conditions: Homo sapiens, U-87 MG
lung cancer (A549) cells = test: WST cell viability assay, A549; assay type: cell-based; conditions: Homo sapiens, A549, read-out: IC50 A549
PP2A [3] = test: PP2A activity in mouse brains after IP dosing (PP2A immunoprecipitation phosphatase assay, malachite green); assay type: in vivo, Balb/c mice; conditions: brain
Procedure: as §1, §2, §3, §4, §5, §6, §7, §8, §9, §10, §11

[4] = tested on: breast cancer (2LMP) cells; test: WST cell viability assay, 2LMP
Text: IC50 values were obtained for cytotoxicity against breast cancer (2LMP), glioblastoma (U-87) and lung cancer (A549) cells (See Table 5 and FIGS. 3-5).

[5] = high dose IP (mpk: 100 1.5, 113 2.2, 151 1.6, 157 2.0), 3 h
[6] = high dose IP (mpk: 100 1.5, 113 2.2, 151 1.6, 157 2.0), 6 h
[7] = low dose IP (mpk: 100 0.75, 113 1.1, 151 0.8, 153 0.85, 157 1.0), 3 h
[8] = low dose IP (mpk: 100 0.75, 113 1.1, 151 0.8, 153 0.85, 157 1.0), 6 h
[9] = high dose IP (mpk: 100 1.5, 113 2.2, 151 1.6, 153 1.7, 157 2.0), 3 h
[10] = high dose IP (mpk: 100 1.5, 113 2.2, 151 1.6, 153 1.7, 157 2.0), 6 h

In the case of `CN1CCN(C(=O)C2C3CCC(O3)C2C(=O)O)CC1` (stereo not shown) [Compound 100, 3-(4-methylpiperazine-1-carbonyl)-7-oxa-bicyclo[2,2,1]-heptane-2-carboxylic acid], the “Average Conc. (group of 3 mice)” value (PP2A [1]; [5]) is reported as 290.15, the “Average Relative Activity (group, vehicle = 100)” value (from here on “Average Relative Activity”) (PP2A [1]; [5]) is reported as 73.9 and the “Conc. (phosphate, single reading, per mouse)” value (PP2A [1]; [5]) is reported as 340.38 and 353.99 and 282.08 and 493.05 and 279.92 and 293.74. The “Mean Conc. (per mouse)” value (PP2A [1]; [5]) was 347.18 and 387.56 and 286.83, the “Mean Conc. less IgG blank (per mouse)” value (PP2A [1]; [5]) was 296.81 and 337.19 and 236.46 and the “Relative Conc. (per mouse, to vehicle)” value (PP2A [1]; [5]) was 0.76 and 0.86 and 0.6. For the same molecule, the “Relative PP2A Activity (per mouse, vehicle = 100)” value (PP2A [1]; [5]) was 75.64 and 85.93 and 60.26, the “Average Conc. (group of 3 mice)” value (PP2A [1]; [6]) was 197.91 and the “Average Relative Activity” value (PP2A [1]; [6]) was 50.5. For the same molecule, the “Conc. (phosphate, single reading, per mouse)” value (PP2A [1]; [6]) was 154.46 and 167.2 and 290.5 and 323.97 and 262.21 and 291.36, the “Mean Conc. (per mouse)” value (PP2A [1]; [6]) was 160.83 and 307.23 and 276.79 and the “Mean Conc. less IgG blank (per mouse)” value (PP2A [1]; [6]) was 110.45 and 256.86 and 226.41. The “Relative Conc. (per mouse, to vehicle)” value (PP2A [1]; [6]) was 0.28 and 0.66 and 0.58, the “Relative PP2A Activity (per mouse, vehicle = 100)” value (PP2A [1]; [6]) was 28.21 and 65.59 and 57.82 and the “Average Conc. (group of 3 mice)” value (PP2A [1]; [7]) was 289.29. For the same molecule, the “Average Relative Activity” value (PP2A [1]; [7]) was 73.7, the “Conc. (phosphate, single reading, per mouse)” value (PP2A [1]; [7]) was 292.01 and 308.85 and 318.57 and 329.58 and 359.6 and 429.35 and the “Mean Conc. (per mouse)” value (PP2A [1]; [7]) was 300.43 and 324.08 and 394.47. For the same molecule, the “Mean Conc. less IgG blank (per mouse)” value (PP2A [1]; [7]) was 250.06 and 273.7 and 344.1, the “Relative Conc. (per mouse, to vehicle)” value (PP2A [1]; [7]) was 0.64 and 0.7 and 0.88 and the “Relative PP2A Activity (per mouse, vehicle = 100)” value (PP2A [1]; [7]) was 63.73 and 69.75 and 87.69. For the same molecule, the “Average Conc. (group of 3 mice)” value (PP2A [1]; [8]) was 316.5, the “Average Relative Activity” value (PP2A [1]; [8]) was 80.8 and the “Conc. (phosphate, single reading, per mouse)” value (PP2A [1]; [8]) was 391.13 and 414.88 and 358.3 and 359.17 and 328.94 and 348.8. The “Mean Conc. (per mouse)” value (PP2A [1]; [8]) was 403 and 358.74 and 338.87, the “Mean Conc. less IgG blank (per mouse)” value (PP2A [1]; [8]) was 352.63 and 308.36 and 288.5 and the “Relative Conc. (per mouse, to vehicle)” value (PP2A [1]; [8]) was 0.9 and 0.79 and 0.74. The “Relative PP2A Activity (per mouse, vehicle = 100)” value (PP2A [1]; [8]) was 90.05 and 78.74 and 73.67, the IC50 ([2]; read-out: IC50 U-87 MG, WST-20131017 (first value of the cell)) was 19.9 µM and the IC50 ([2]; read-out: IC50 U-87 MG, WST-20131024 (second value of the cell)) was 25.2 µM. For the same molecule, the IC50 (lung cancer (A549) cells) was 10.3 µM, the “Average Conc. (group of 3 mice)” value (PP2A [3]; [9]) was 1176.58 and the “Average Relative Activity” value (PP2A [3]; [9]) was 80.09. The “Conc. (phosphate, single reading, per mouse)” value (PP2A [3]; [9]) was 1090.16 and 1146.07 and 1273.56 and 1349.24 and 1116.43 and 1122.21, the “Mean Conc. (per mouse)” value (PP2A [3]; [9]) was 1118.11 and 1311.40 and 1119.32 and the “Mean Conc. less IgG blank (per mouse)” value (PP2A [3]; [9]) was 1111.75 and 1305.03 and 1112.95. For the same molecule, the “Relative Conc. (per mouse, to vehicle)” value (PP2A [3]; [9]) was 0.77 (2×) and 0.90, the “Relative PP2A Activity (per mouse, vehicle = 100)” value (PP2A [3]; [9]) was 75.68 and 88.84 and 75.76 and the “Average Conc. (group of 3 mice)” value (PP2A [3]; [10]) was 1430.23. For the same molecule, the “Average Relative Activity” value (PP2A [3]; [10]) was 102.54, the “Conc. (phosphate, single reading, per mouse)” value (PP2A [3]; [10]) was 1524.93 and 1576.74 and 1180.05 and 1223.91 and 1496.73 and 1617.23 and the “Mean Conc. (per mouse)” value (PP2A [3]; [10]) was 1550.84 and 1201.98 and 1556.98. The “Mean Conc. less IgG blank (per mouse)” value (PP2A [3]; [10]) was 1544.47 and 1195.62 and 1550.62, the “Relative Conc. (per mouse, to vehicle)” value (PP2A [3]; [10]) was 1.12 (2×) and 0.87 and the “Relative PP2A Activity (per mouse, vehicle = 100)” value (PP2A [3]; [10]) was 110.73 and 85.72 and 111.17. For the same molecule, the “Average Conc. (group of 3 mice)” value (PP2A [3]; [7]) was 1143.44, the “Average Relative Activity” value (PP2A [3]; [7]) was 77.84 and the “Conc. (phosphate, single reading, per mouse)” value (PP2A [3]; [7]) was 1131.61 and 1148.72 and 982.91 and 1046.54 and 1270.67 and 1318.39. The “Mean Conc. (per mouse)” value (PP2A [3]; [7]) was 1140.17 and 1014.72 and 1294.53, the “Mean Conc. less IgG blank (per mouse)” value (PP2A [3]; [7]) was 1133.80 and 1008.36 and 1288.16 and the “Relative Conc. (per mouse, to vehicle)” value (PP2A [3]; [7]) was 0.78 and 0.69 and 0.89. For the same molecule, the “Relative PP2A Activity (per mouse, vehicle = 100)” value (PP2A [3]; [7]) was 77.18 and 68.64 and 87.69, the “Average Conc. (group of 3 mice)” value (PP2A [3]; [8]) was 1009.84 and the “Average Relative Activity” value (PP2A [3]; [8]) was 72.40. The “Conc. (phosphate, single reading, per mouse)” value (PP2A [3]; [8]) was 996.89 and 1024.12 and 978.81 and 1073.53 and 990.38 and 1033.52, the “Mean Conc. (per mouse)” value (PP2A [3]; [8]) was 1010.51 and 1026.17 and 1011.95 and the “Mean Conc. less IgG blank (per mouse)” value (PP2A [3]; [8]) was 1004.14 and 1019.81 and 1005.59. For the same molecule, the “Relative Conc. (per mouse, to vehicle)” value (PP2A [3]; [8]) was 0.73 (2×) and 0.74, the “Relative PP2A Activity (per mouse, vehicle = 100)” value (PP2A [3]; [8]) was 71.99 and 73.11 and 72.09 and the IC50 ([4]; read-out: IC50 2LMP, WST-20131015 (first value of the cell)) was 3.41 µM. For the same molecule, the IC50 ([4]; read-out: IC50 2LMP, WST-20131025 (second value of the cell)) was 6.98 µM.
